Results published in patent US9955691B2, “Macrocyclic picolinamides as fungicides” (DOW AGROSCIENCES LLC, priority 2014, dated 2018).
Read-outs that look alike come from different tables or passages of the source.

Columns and labels:
Puccinia triticina = test: Fungicidal activity: Wheat Brown Rust (PUCCRT); assay type: in vivo; conditions: for pest or weed control at 100 µg/mL: High Volume (100 ppm); for pest or weed control at 121.5 g/ha: Low Volume (121.5 g/H)
How it was run: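 Wheat seedlings (Yuma, first leaf) sprayed to run-off with compound in acetone/water with Triton X-100, inoculated with Puccinia triticina before or after treatment. Held overnight in dark dew at 22° C, then greenhouse at 24° C; percent disease control from severity versus untreated plants.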

[1] = tested on: Mycosphaerella graminicola; Anamorph: Septoria tritici; test: Fungicidal activity: Leaf Blotch of Wheat (SEPTTR); assay type: in vivo; conditions: Zymoseptoria tritici; for pest or weed control at 121.5 g/ha: Low Volume (121.5 g/H)
How it was run: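 Compounds were dissolved in acetone, diluted with nine volumes of water containing 110 ppm Triton X-100, and sprayed to run-off on first-leaf Yuma wheat seedlings inoculated with Septoria tritici spores before or after treatment. Plants were held in a dew chamber, then a 20° C. greenhouse. Percent control was derived from disease severity relative to untreated plants.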

[2] = 24 h, 1 Day Protectant, read-out: PUCCRT 1 DP disease control
[3] = 72 h, 3 Day Curative, read-out: PUCCRT 3 DC disease control
[4] = 24 h, High Volume (100 ppm), 1 Day Protectant, wheat leaf blotch, read-out: SEPTTR 1 DP disease control
[5] = 24 h, 1 Day Protectant, wheat leaf blotch, read-out: SEPTTR 1 DP disease control
[6] = 72 h, High Volume (100 ppm), 3 Day Curative, wheat leaf blotch, read-out: SEPTTR 3 DC disease control
[7] = 72 h, 3 Day Curative, wheat leaf blotch, read-out: SEPTTR 3 DC disease control

COc1ccnc(C(=O)N[C@H]2COC[C@H](CCc3ccccc3)[C@@H](CCc3ccccc3)[C@H](C)OC2=O)c1OCOC(C)=O [compound 4]
pest or weed control at 100 µg/mL (Puccinia triticina; [2]): > 70%
pest or weed control at 121.5 g/ha (Puccinia triticina; [2]): > 70%
pest or weed control at 100 µg/mL (Puccinia triticina; [3]): > 70%
pest or weed control at 121.5 g/ha (Puccinia triticina; [3]): < 70%
melting point: 42 to 47 °C
pest or weed control at 100 µg/mL [1, 4]: > 70%
pest or weed control at 121.5 g/ha [1, 5]: > 70%
pest or weed control at 100 µg/mL [1, 6]: > 70%
pest or weed control at 121.5 g/ha [1, 7]: > 70%

CCC[C@H]1COC[C@H](NC(=O)c2nccc(OC)c2O)C(=O)O[C@@H](C)[C@@H]1Cc1ccc(F)cc1 [compound 155]
pest or weed control at 100 µg/mL (Puccinia triticina; [2]): > 70%
pest or weed control at 100 µg/mL (Puccinia triticina; [3]): < 70%
melting point: 43 to 48 °C
pest or weed control at 100 µg/mL [1, 4]: > 70%
pest or weed control at 100 µg/mL [1, 6]: > 70%

COc1ccnc(C(=O)N[C@H]2COC[C@H](CC3CCCCC3)[C@@H](CC3CCCCC3)[C@H](C)OC2=O)c1OCOC(C)=O [compound 10]
pest or weed control at 100 µg/mL (Puccinia triticina; [2]): > 70%
pest or weed control at 100 µg/mL (Puccinia triticina; [3]): > 70%
melting point: 50 to 56 °C
pest or weed control at 100 µg/mL [1, 4]: > 70%
pest or weed control at 100 µg/mL [1, 6]: < 70%

COc1ccnc(C(=O)N[C@H]2COC[C@H](Cc3ccc(Cl)cc3)[C@@H](C3CCCC3)[C@H](C)OC2=O)c1OCOC(C)=O [compound 88]
pest or weed control at 121.5 g/ha (Puccinia triticina; [2]): > 70%
pest or weed control at 121.5 g/ha (Puccinia triticina; [3]): < 70%
melting point: 56 to 60 °C
pest or weed control at 121.5 g/ha [1, 5]: > 70%
pest or weed control at 121.5 g/ha [1, 7]: < 70%

COc1ccnc(C(=O)N[C@H]2COC[C@H](Cc3ccc(Cl)cc3)[C@@H](Cc3ccc(OC(F)(F)F)cc3)[C@H](C)OC2=O)c1O [compound 137]
pest or weed control at 100 µg/mL (Puccinia triticina; [2]): > 70%
pest or weed control at 100 µg/mL (Puccinia triticina; [3]): < 70%
melting point: 64 to 68 °C
pest or weed control at 100 µg/mL [1, 4]: < 70%
pest or weed control at 100 µg/mL [1, 6]: > 70%

CCC[C@H]1COC[C@H](NC(=O)c2nccc(OC)c2OCOC(C)=O)C(=O)O[C@@H](C)[C@@H]1Cc1ccc(F)cc1 [compound 108]
pest or weed control at 121.5 g/ha (Puccinia triticina; [2]): > 70%
pest or weed control at 121.5 g/ha (Puccinia triticina; [3]): > 70%
melting point: 38 to 43 °C
pest or weed control at 121.5 g/ha [1, 5]: > 70%
pest or weed control at 121.5 g/ha [1, 7]: > 70%

COc1ccnc(C(=O)N[C@H]2COC[C@H](Cc3ccccc3)[C@@H](Cc3ccccc3)[C@H](C)OC2=O)c1O [Cmpd. 112, N-((3S,7R,8R,9S)-7,8-dibenzyl-9-methyl-2-oxo-1,5-dioxonan-3-yl)-3-hydroxy-4-methoxypicolinamide]
pest or weed control at 100 µg/mL (Puccinia triticina; [2]): < 70%
pest or weed control at 100 µg/mL (Puccinia triticina; [3]): < 70%
melting point: 69 to 72 °C
pest or weed control at 100 µg/mL ([1]; 24 h, read-out: SEPTTR 1 DP disease control): < 70%
pest or weed control at 100 µg/mL ([1]; 72 h, read-out: SEPTTR 3 DC disease control): < 70%

COc1ccnc(C(=O)N[C@H]2COC[C@H](Cc3ccc(Cl)cc3)[C@@H](Cc3ccc(OC(F)(F)F)cc3)[C@H](C)OC2=O)c1OCOC(C)=O [compound 58]
pest or weed control at 121.5 g/ha (Puccinia triticina; [2]): > 70%
pest or weed control at 121.5 g/ha (Puccinia triticina; [3]): < 70%
melting point: 158 to 161 °C
pest or weed control at 121.5 g/ha [1, 5]: > 70%
pest or weed control at 121.5 g/ha [1, 7]: > 70%

COc1ccnc(C(=O)N[C@H]2COC[C@H](Cc3ccccc3)[C@@H](Cc3ccccc3)[C@@H](C)OC2=O)c1O [compound 111]
pest or weed control at 100 µg/mL (Puccinia triticina; [2]): > 70%
pest or weed control at 100 µg/mL (Puccinia triticina; [3]): > 70%
melting point: 201 to 204 °C
pest or weed control at 100 µg/mL [1, 4]: > 70%
pest or weed control at 100 µg/mL [1, 6]: < 70%

COc1ccnc(C(=O)N[C@H]2COC[C@H](Cc3ccc(Cl)cc3)[C@@H](C3CCCC3)[C@H](C)OC2=O)c1OC(C)=O [compound 86]
pest or weed control at 121.5 g/ha (Puccinia triticina; [2]): > 70%
pest or weed control at 121.5 g/ha (Puccinia triticina; [3]): > 70%
melting point: 85 to 89 °C
pest or weed control at 121.5 g/ha [1, 5]: > 70%
pest or weed control at 121.5 g/ha [1, 7]: > 70%

COc1ccnc(C(=O)N[C@H]2COC[C@H](CCC(C)C)[C@@H](C3CCCC3)[C@H](C)OC2=O)c1OC(C)=O [compound 91]
pest or weed control at 121.5 g/ha (Puccinia triticina; [2]): > 70%
pest or weed control at 121.5 g/ha (Puccinia triticina; [3]): < 70%
melting point: 57 to 62 °C
pest or weed control at 121.5 g/ha [1, 5]: > 70%
pest or weed control at 121.5 g/ha [1, 7]: > 70%

COc1ccnc(C(=O)N[C@H]2COC[C@H](Cc3ccccc3)[C@@H](COc3ccccc3)[C@H](C)OC2=O)c1O [compound 151]
pest or weed control at 100 µg/mL (Puccinia triticina; [2]): > 70%
pest or weed control at 100 µg/mL (Puccinia triticina; [3]): < 70%
melting point: 68 to 73 °C
pest or weed control at 100 µg/mL [1, 4]: > 70%
pest or weed control at 100 µg/mL [1, 6]: > 70%

COc1ccnc(C(=O)N[C@H]2COC[C@H](CC3CC3)[C@@H](Cc3ccccc3)[C@H](C)OC2=O)c1OC(C)=O [compound 69]
pest or weed control at 121.5 g/ha (Puccinia triticina; [2]): > 70%
pest or weed control at 121.5 g/ha (Puccinia triticina; [3]): > 70%
melting point: 125 to 128 °C
pest or weed control at 121.5 g/ha [1, 5]: > 70%
pest or weed control at 121.5 g/ha [1, 7]: > 70%

COc1ccnc(C(=O)N[C@H]2COC[C@H](CC3CCCCC3)[C@@H](CC3CCCCC3)[C@H](C)OC2=O)c1O [compound 119]
pest or weed control at 100 µg/mL (Puccinia triticina; [2]): > 70%
pest or weed control at 100 µg/mL (Puccinia triticina; [3]): > 70%
melting point: 69 to 75 °C
pest or weed control at 100 µg/mL [1, 4]: > 70%
pest or weed control at 100 µg/mL [1, 6]: < 70%

C=C[C@@H]1[C@@H](Cc2ccccc2)COC[C@H](NC(=O)c2nccc(OC)c2OCOC(C)=O)C(=O)O[C@H]1C [compound 9]
pest or weed control at 100 µg/mL (Puccinia triticina; [2]): > 70%
pest or weed control at 100 µg/mL (Puccinia triticina; [3]): > 70%
melting point: 42 to 48 °C
pest or weed control at 100 µg/mL [1, 4]: > 70%
pest or weed control at 100 µg/mL [1, 6]: > 70%

COc1cccc(C[C@H]2COC[C@H](NC(=O)c3nccc(OC)c3O)C(=O)O[C@@H](C)[C@@H]2Cc2cccc(OC)c2)c1 [compound 124]
pest or weed control at 100 µg/mL (Puccinia triticina; [2]): > 70%
pest or weed control at 100 µg/mL (Puccinia triticina; [3]): < 70%
melting point: 62 to 65 °C
pest or weed control at 100 µg/mL [1, 4]: < 70%
pest or weed control at 100 µg/mL [1, 6]: < 70%

COc1ccnc(C(=O)N[C@H]2COC[C@H](CCc3ccccc3)[C@@H](CCc3ccccc3)[C@H](C)OC2=O)c1O [compound 113]
pest or weed control at 100 µg/mL (Puccinia triticina; [2]): > 70%
pest or weed control at 100 µg/mL (Puccinia triticina; [3]): < 70%
melting point: 52 to 56 °C
pest or weed control at 100 µg/mL [1, 4]: > 70%
pest or weed control at 100 µg/mL [1, 6]: > 70%

CCOCC(=O)OCOc1c(OC)ccnc1C(=O)N[C@H]1COC[C@H](Cc2ccc(Cl)cc2)[C@@H](C2CCCC2)[C@H](C)OC1=O [compound 90, ((2-(((3S,7R,8R,9S)-7-(4-chlorobenzyl)-8-cyclopentyl-9-methyl-2-oxo-1,5-dioxonan-3-yl)carbamoyl)-4-methoxypyridin-3-yl)oxy)methyl 2-ethoxyacetate]
pest or weed control at 121.5 g/ha (Puccinia triticina; [2]): > 70%
pest or weed control at 121.5 g/ha (Puccinia triticina; [3]): < 70%
melting point: 52 to 55 °C
pest or weed control at 121.5 g/ha [1, 5]: > 70%
pest or weed control at 121.5 g/ha [1, 7]: > 70%

COc1ccnc(C(=O)N[C@H]2COC[C@H](Cc3ccc(Cl)cc3)[C@@H](C3CCCC3)[C@H](C)OC2=O)c1OC(=O)C(C)C [compound 87]
pest or weed control at 121.5 g/ha (Puccinia triticina; [2]): > 70%
pest or weed control at 121.5 g/ha (Puccinia triticina; [3]): < 70%
melting point: 73 to 77 °C
pest or weed control at 121.5 g/ha [1, 5]: > 70%
pest or weed control at 121.5 g/ha [1, 7]: > 70%

COc1ccnc(C(=O)N[C@H]2COC[C@H](Cc3ccccc3)[C@@H](Cc3ccc(OC(F)(F)F)cc3)[C@H](C)OC2=O)c1O [compound 131]
pest or weed control at 100 µg/mL (Puccinia triticina; [2]): > 70%
pest or weed control at 100 µg/mL (Puccinia triticina; [3]): > 70%
melting point: 63 to 69 °C
pest or weed control at 100 µg/mL [1, 4]: > 70%
pest or weed control at 100 µg/mL [1, 6]: > 70%

COc1ccnc(C(=O)N[C@H]2COC[C@H](Cc3ccc(Cl)cc3)[C@@H](C3CCCC3)[C@H](C)OC2=O)c1O [compound 149]
pest or weed control at 100 µg/mL (Puccinia triticina; [2]): > 70%
pest or weed control at 100 µg/mL (Puccinia triticina; [3]): > 70%
melting point: 80 to 84 °C
pest or weed control at 100 µg/mL [1, 4]: > 70%
pest or weed control at 100 µg/mL [1, 6]: > 70%
